The source of these data is patent US20160058829A1, “ANTI-FIBROTIC PEPTIDES AND THEIR USE IN METHODS FOR TREATING DISEASES AND DISORDERS CHARACTERIZED BY FIBROSIS” (Thrasos Innovation, Inc., priority 2011, published 2016).

The test system of one experiment is p38 MAPK. The experiment is described as follows: p38 MAPK phosphorylation in HK-2 cells. It counts as cell-based, human. Particulars: HK-2 cells. From the text:
The significance of p38 MAPK is that this protein is implicated as a non-Smad-dependent pathway for TGF-β-dependent EMT. Other non-Smad-dependent pathways implicated in TGF-β-dependent EMT include RhoA, Ras, PI3 kinase, Notch, and Wnt signaling pathways.
It has been shown that regulation p38 MAPK activity by pro-inflammatory factors has implications in fibrosis.

The test system of another experiment is HK-2 cells. The experiment is described as follows: TNF-α-induced inflammatory cytokine production in HK-2 cells (ELISA). It counts as cell-based, human. The procedure:
FIG. 37 provides a bar graph showing a comparison of the effects of THR-123 (or “THR-1405”) and the specific inhibitor SB 203580 on the level of TNF-α-induced IL-6 production, an inflammatory marker, in human renal tubule epithelial cells (HK-2).
FIG. 47A-FIG. 47C Anti-inflammatory activity of THR-123. PTEC-derived HK-2 (HK-2) cells were culture on 24-well plate (30,000 cells/well). Cells are exposed to K-SFM medium alone or TNF-α (5 ng/ml). Twenty hours after TNF-α incubation, cells are washed twice by pre-warmed culture media and subsequently cells are incubated with various concentration of THR-123 or BMP7 for 60 hours. At the end of incubation, culture medias are harvested and ELISA analysis are performed. FIG. 47A: IL-6, FIG. 47B: IL-8 and FIG. 47C: ICAM-1 results are shown. Analyze are performed in triplicates and data are shown as mean±s.e.m. in the graph.
Preliminary screening for optimization was based on anti-inflammatory efficacy in an in vitro cell-based assay using a human renal tubular epithelial cell line (HK-2). The assay tested the ability of compounds to reverse the increase in production of cytokine IL-6 that resulted from stimulation of the cells with tumor necrosis factor (TNF)-α. Sequence-activity analysis was carried out using the SVA program. After six optimization cycles, THR-123 (FIG. 2A) emerged as the lead compound, which was further evaluated in other relevant anti-fibrosis assays (vide infra).
Human proximal tubular epithelial cells-derived HK-2 cells were culture on 24-well plate (30,000 cells/well). Cells are exposed to K-SFM medium alone or […] (5 ng/ml). Twenty hours after TNF-α incubation, cells are washed twice by pre-warmed culture media and subsequently cells are incubated with various concentration of THR-123 or BMP7 for 60 hours. At the end of incubation, culture medias are harvested and ELISA analysis for IL-6, IL-8 and ICAM-1 are performed.
On the technique in general: ELISA stands for enzyme-linked immunosorbent assay.

The subject of experiment [1] is human proximal tubule epithelial cells (HK2). The experiment is described as follows: D-glucose-induced EMT assay, E-cadherin immunofluorescence with colorimetric image analysis. Type of experiment: cell-based. Particulars: for Percent inhibition of D-glucose-induced EMT: 0% = D-glucose untreated, 100% = media without D-glucose. The procedure:
Chronic hyperglycemia is a known cause of renal fibrosis in type 2 diabetes. The assay in this example induces the transdifferentiation from the epithelial to the mesenchymal phenotype (EMT) in human proximal tubule epithelial cells (HK2) by exposing them to high levels of D-glucose (100 mM and 200 mM). […] Exposure to 100 mM D-glucose results in the loss of E-cadherine expression as evidenced by the loss of the fluorescene signal. Using this assay test compounds are evaluated based on their ability to inhibit the EMT processes in the presence of high levels of D-glucose. FIGS. 4-16 are fluorescence micrographs of HK2 cells exposed to 100 mM D-glucose and 100 uM of SEQ IS NOs 1 through 11, respectively. Note that all but SEQ ID NOs 10 and 11 were able to preserve the epithelial phenotype (i.e., inhibit the EMT).
Results are provided in the context of FIG. 1 and Table 3, below. In Table 3 below, compound response is scored using image analysis as described herein in the method of Methods and Materials, part C. A 0% response corresponds to the signal for 100 mM (or 200 mM) D-glucose (untreated) while the 100% response corresponds to the signal for media in the absence of D-glucose.
It has been shown that transdifferentiation of proximal tubular epithelial cells is a critical step in the development of renal fibrosis, and that this is associated with a loss of the epithelial phenotypic marker, E-cadherin expression. This provides the basis for the development of a cell-based screening assay in which high concentrations of D-Glucose (50-100 mM) are used to induce a loss of E-cadherin expression in human renal proximal tubular epithelial (HK-2) cells, and compounds are tested for their ability to reverse the loss E-cadherin expression.
Materials: • Human proximal tubular epithelial cells, HK-2 (ATCC #CRL-2190) • Serum-free keratinocyte medium (GIBCO #17005-042, K-SFM) • Epidermal growth factor (EGF: 5 ng/mL) • Bovine pituitary extract (BPE: 40 ug/mL) • Primary antibody, Mouse IgG anti-E-cadherin (R&D Systems # MAB1838) • BSA [Sigma #A7030] • secondary antibody, FITC-conjugated Goat anti-mouse IgG (Fab2) fragment (Sigma-Aldrich # F-2653) • Paraformaldehyde (10%)) • Triton X-100 (Sigma # T-9284) • PBS (Fisher Scientific #BP399-1) • D-PBS (Invitrogen #14190-144) • Polypropylene tips (Axygen, Inc. 0.5-10 uL, cat # T-300-L-R; 1-200 uL, Cat # T-200-L-R; 1-1000 uL, Cat # T-1000-C-L-R) • 50 mL polypropylene culture tubes (Fisher Scientific, cat #06-443-18) • 24-well Coster cell culture plates (Fisher Scientific #07-200-84)
Reagents & Test Samples: • Positive control: BMP-7, assayed at concentrations 0.1 and 1 ug/mL • Test compounds (peptides): each tested at final concentrations 100 uM and 200 uM.
Assay Procedure for Cell Culture Assay: • Run assay in 24-well culture plates. • Seed HK-2 cells at a density between 25,000 and 30,000 cells per well in lmL K-SFM medium with supplements added (growth medium) • Incubate HK-2 cells for 24 hours at 37° C., and let cells attach the plate • Next Day afternoon, change the medium with K-SFM medium with no added supplements (serum free medium) in all wells except the first two control wells. • Continue incubating HK-2 cells overnight at 37° C. • Next Day, aspirate the medium from all wells. Incubate the cells in growth medium (first two control wells) or expose them to test compounds for 2 hours at 37° C. Final concentrations of each Test compound are 100 and 200 uM. BMP-7 serves as a positive control in the assay. • After incubation, add D-glucose to all wells except first two control wells. Final concentrations of D-Glucose are 50 and 100 mM. • Incubate HK-2 cells for 60 hours at 37° C. • Aspirate the medium from all wells. To the wells, add pre-warmed growth medium or serum free medium containing D-glucose alone or D-glucose and test compound or D-glucose and BMP-7. Final concentrations of D-Glucose and Test compound are the same as above. • Continue incubating HK-2 cells for 24 hours at 37° C. […]

Experiment [2] deals with Streptozotocin-induced diabetic CD-1 mice. The experiment is described as follows: Advanced diabetic nephropathy, captopril and captopril/THR-123 combination (month 7-8).

Entries after “also recorded” stand apart in the source; their conditions may differ. Positions of bridges follow the written chain, without caps; N, C: chain ends. Non-standard residues stand in square brackets, D forms with d. Dap = NC[C@H](N)C(=O)O

Turning to `C[S+]([O-])c1ccc(-c2nc(-c3ccncc3)c(-c3ccc(F)cc3)[nH]2)cc1` (centres unmarked) [SB 203580, reference compound], the “basal p38 phosphorylation” value in the experiment on p38 MAPK is “inhibited p38 phosphorylation”. Besides, the “TNF-α-induced IL-6 production” value in the experiment on HK-2 cells (HK-2 cells) is reported as “significantly reduced”.
Take “(H)-CYYDDSSSVLCKKYRS-(OH) (H-CYYDDSSSVLCKKYRS-OH; disulfide 1-11; SMILES CC(C)C[C@@H]1NC(=O)[C@H](C(C)C)NC(=O)[C@H](CO)NC(=O)[C@H](CO)NC(=O)[C@H](CO)NC(=O)[C@H](CC(=O)O)NC(=O)[C@H](CC(=O)O)NC(=O)[C@H](Cc2ccc(O)cc2)NC(=O)[C@H](Cc2ccc(O)cc2)NC(=O)[C@@H](N)CSSC[C@@H](C(=O)N[C@@H](CCCCN)C(=O)N[C@@H](CCCCN)C(=O)N[C@@H](Cc2ccc(O)cc2)C(=O)N[C@@H](CCCNC(=N)N)C(=O)N[C@@H](CO)C(=O)O)NC1=O) [SEQ ID NO: 11]”: the “activity in anti-inflammatory assays” value in the experiment on HK-2 cells is given as “positive”. Besides, the “preservation of the epithelial phenotype (inhibition of EMT), anti-fibrotic effect” value in experiment [1] (HK2 cells, high D-glucose) is recorded as “very weak anti-fibrotic effect; also recorded: unable to inhibit the EMT process”.
Take `C[C@H](CS)C(=O)N1CCC[C@H]1C(=O)O` [captopril]: the mesangial matrix expansion entry in experiment [2] (CPR p.o. 50 mg/Kg/day, THR-123 p.o. 5 mg/Kg/day, month 7 to 8) was “did not inhibit progression of mesangial matrix expansion”. Moreover, in experiment [2] (month 7 to 8 treatment), the “EMT program (E-cadherin/FSP1 double positive tubules)” value is listed as “inhibited”, the macrophage infiltration entry is given as “partially” and the “tubule cell apoptosis (TUNEL) in diabetic kidney” value is listed as “significantly inhibited apoptosis”. The macrophage infiltration entry in experiment [2] (month 7 to 8 treatment, listed as CPR) is listed as “inhibited macrophage infiltration”.
Take “3 (H-[Dap]YFDDSSNVLDKKYRS-OH; SMILES CC(C)C[C@H](NC(=O)[C@@H](NC(=O)[C@H](CC(N)=O)NC(=O)[C@H](CO)NC(=O)[C@H](CO)NC(=O)[C@H](CC(=O)O)NC(=O)[C@H](CC(=O)O)NC(=O)[C@H](Cc1ccccc1)NC(=O)[C@H](Cc1ccc(O)cc1)NC(=O)[C@@H](N)CN)C(C)C)C(=O)N[C@@H](CC(=O)O)C(=O)N[C@@H](CCCCN)C(=O)N[C@@H](CCCCN)C(=O)N[C@@H](Cc1ccc(O)cc1)C(=O)N[C@@H](CCCNC(=N)N)C(=O)N[C@@H](CO)C(=O)O) [compound 3]”: the “Percent inhibition of D-glucose-induced EMT” value in experiment [1] (100 uM peptide) was determined as 67%; in experiment [1] (200 uM peptide) it was 128%.
